Measurements published in PubChem BioAssay AID1322 (NMMLSC, 2008).
Active and inactive are the calls of the source. The rule behind the calls is not given here.

Biological target: Bcl-2-like protein 1 (Homo sapiens) (UniProt Q07817)
Assay: Bim-Bcl-XL interaction inhibitors, potency, dose response, biochemical, multiplexed, bead flow cytometry, human Bcl-XL (AID 1322); for inhibition: test concentration not given here
Conditions: Bead-based flow cytometry, Bim peptide-Bcl-XL binding, MCF; for inhibition: stronger effect = higher value

Chain of Bcl-2-like protein 1 (Homo sapiens) (Q07817 whole entry, looked up): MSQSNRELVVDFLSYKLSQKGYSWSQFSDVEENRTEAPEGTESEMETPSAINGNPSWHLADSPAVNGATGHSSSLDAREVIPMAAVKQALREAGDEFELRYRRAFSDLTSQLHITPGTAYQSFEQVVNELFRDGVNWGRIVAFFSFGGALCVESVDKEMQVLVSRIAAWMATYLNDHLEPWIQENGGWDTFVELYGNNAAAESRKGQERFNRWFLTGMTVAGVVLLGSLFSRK

SMILES | inhibition | outcome
O=S1(=O)N=C(N(CCO)/N=C/c2ccccc2)c2ccccc21 | inactive | –
O=C(Cc1ccccc1)N/N=C/c1cccn1-c1ccc([N+](=O)[O-])cc1 | – | inactive
O=C(O)c1cccc(NC2=C(Cl)C(=O)c3ccccc3C2=O)c1 | – | inactive
COc1ccc(CCNC(=O)c2cc(-c3ccccn3)nc3c(Cl)cccc23)cc1OC | inactive | –
O=c1c2c(n3nnnc3n1Cc1ccccc1)-c1ccccc1CC21CCCC1 | inactive | –
c1coc(C2=Nc3cccc4cccc(c34)N2)c1 | inactive | –
CCN(CC)c1ccc(NC2=C(Cl)C(=O)c3ccccc3C2=O)cc1 | – | inactive
CCOc1ccc(NCc2ccccc2OCc2cccc(F)c2)cc1 | inactive | –
COc1ccc(C(=O)/C=C/c2cc(OC)c(O)c(OC)c2)c(F)c1 | inactive | –
O=C(CC1NCCNC1=O)Nc1cccc([N+](=O)[O-])c1 (stereo unspecified) | – | inactive
O=C(NCc1ccco1)C1CC2CCC1C2 (stereo unspecified) | inactive | –
O=C1/C(=C/c2cccs2)Sc2ccccc21 | inactive | –
Cc1ccc(/C=N/NC(=O)CSc2nnc(-c3ccc(Cl)cc3)n2-c2ccccc2)o1 | inactive | –
O=C(O)CC1S/C(=N/N=C/C=C/c2ccccc2[N+](=O)[O-])NC1=O (stereo unspecified) | – | inactive
O=C(C1=NN[C@@H]2C(=O)N(c3cccc(F)c3)C(=O)[C@H]12)c1ccc2ccccc2n1 | – | inactive
CCOc1ccc(C(=O)Nc2nnn(CC)n2)cc1 | inactive | –
COc1ccc(NC(=O)c2ccc(CN3CCN(c4ccccc4)CC3)cc2)cc1 | inactive | –
Cc1ccc(-c2nc3c(c(=O)[nH]c(=O)n3Cc3ccccc3)n2Cc2ccccc2)o1 | inactive | –
COc1ccc(-c2csc(NC(=O)/C(N=Nc3ccccc3)=C(\C)O)n2)cc1 | – | inactive
CCOc1cc(C2Nc3cccc4cccc(c34)N2)ccc1O | inactive | –
CCOc1ccc(C(=O)Nc2nnc(NC(=S)Nc3ccccc3)s2)cc1 | inactive | –
